Data published in patent US11993573B2, “Chromane-substituted, tetrahydroquinoline-substituted and thiochromane-substituted heteroarotinoids as anti-cancer agents” (THE BOARD OF REGENTS FOR OKLAHOMA STATE UNIVERSITY, priority 2018, dated 2024).
Like-named read-outs stand apart in the source and are kept apart here.

Assays:
[1] = system: human ovarian cancer cell line A2780; assay: Growth inhibition assay (CellTiter 96 Non-Rad Cell Proliferation Assay); type: cell-based; settings: for efficacy compared with SHetA2 / IC50 compared with SHetA2: comparison in words; for IC50 compared with SHetA2: 'exceeded' = lower IC50 in Table 1
Procedure: To illustrate the general activity of the compounds inhibiting growth of human […] ovarian cancer cells, selected compounds were synthesized and evaluated. The compounds were dissolved in DMSO at a concentration of 0.01 M. The human ovarian cancer cell line A2780 was plated in 96-well tissue culture dishes at a concentration of 3000 cells per well in RPMI medium supplemented with 10% fetal bovine serum and a mixture of antibiotics and antimycotics. The next day, the cultures were treated in triplicate with compound concentrations ranging from 2 μM to 8 μM increments. For compound 12, additional experiments were performed with concentrations of 10 μM and a series of two-fold dilutions to 156 nM. Control cultures were treated with DMSO solvent only. After 72 h of incubation, the […] 96® Non-Rad Cell Proliferation Assay (Promega) was used to quantify the remaining metabolically living cells. After subtracting blank values, the optical density (OD) readouts of the assay for the treated cultures were normalized with the average OD of the control cultures. For each compound, the experiment was repeated at least once, resulting in a minimum of 6 dose-response curves. For SHetA2, 24 response curves were available for statistical fitting parameters. A custom program was written in GNU Octave, a free software compatible with Matlab, to fit the dose-response curves with a four-parameter sigmoid function, extracting the IC50 and efficacy (the maximal % growth inhibition) parameters.
To illustrate the useful biological activity of these chroman-substituted and tetrahydroquinoline-substituted heteroarotinoids, the compounds were screened against human […] ovarian cancer cells.

[2] = Homo sapiens, A2780, 72 h, Table 1, chroman-containing series
[3] = Homo sapiens, A2780, 72 h, Table 1, maximal % growth inhibition, A2780, 72 h, read-out: Efficacy
[4] = Homo sapiens, A2780, 72 h, Table 2, tetrahydroquinoline-containing members
[5] = Homo sapiens, A2780, 72 h, Table 2, maximal % growth inhibition, A2780, 72 h, read-out: Efficacy
[6] = Homo sapiens, A2780, Table 3, 14 series (thiochroman), A2780
[7] = Homo sapiens, A2780, Table 3, 14 series, A2780, read-out: % Efficacy

| IC50 [1, 2] [µM] | melting point [°C] | IC50 [1, 4] [µM] | SMILES | Emax [1, 3] [%] | Emax [1, 5] [%] | also measured |
| --- | --- | --- | --- | --- | --- | --- |
|  | 83 to 85 | 5.4 | CN1c2ccc(NC(=S)Nc3ccc(OC(F)(F)F)cc3)cc2C(C)(C)C(=O)C1(C)C [Compound 11f, 1-(1,2,2,4,4-Pentamethyl-3-oxo-1,2,3,4-tetrahydroquinolin-6-yl)-3-(4-(trifluoromethoxy)phenyl)thiourea] |  | 76 |  |
|  | 200 to 201 | 3.8 | CN1c2ccc(NC(=O)Nc3ccc([N+](=O)[O-])cc3)cc2C(C)(C)C(=O)C1(C)C [Compound 11a, 1-(4-Nitrophenyl)-3-(1,2,2,4,4-pentamethyl-3-oxo-1,2,3,4-tetrahydroquinolin-6-yl)urea] |  | 94.8 |  |
|  | 105 to 107 | 7.6 | CN1c2ccc(NC(=S)Nc3ccc(C(F)(F)F)cc3)cc2C(C)(C)C(O)C1(C)C (centres unmarked) [Compound 13d, 1-(3-Hydroxy-1,2,2,4,4-pentamethyl-1,2,3,4-tetrahydroquinolin-6-yl)-3-(4-(trifluoromethyl)phenyl)thiourea] |  | 56.1 |  |
|  | 198 to 199 | 2.58 | CN1c2ccc(NC(=O)Nc3ccc(C(F)(F)F)cc3)cc2C(C)(C)C(=O)C1(C)C [Compound 11c, 1-(1,2,2,4,4-Pentamethyl-3-oxo-1,2,3,4-tetrahydroquinolin-6-yl)-3-(4-(trifluoromethyl)phenyl)urea] |  | 90.1 |  |
|  | 191 to 192 | 2.4 | CN1c2ccc(NC(=O)Nc3ccc(OC(F)(F)F)cc3)cc2C(C)(C)C(=O)C1(C)C [Compound 11e, 1-(1,2,2,4,4-Pentamethyl-3-oxo-1,2,3,4-tetrahydroquinolin-6-yl)-3-(4-(trifluoromethoxy)phenyl)urea] |  | 91.3 |  |
|  | 104 to 105 | 6 | CC1(C)CCNc2ccc(NC(=S)Nc3ccc(C(F)(F)F)cc3)cc21 [Compound 9c, 1-(4,4-Dimethyl-1,2,3,4-tetrahydroquinolin-6-yl)-3-(4-(trifluoromethyl)phenyl)thiourea] |  | 42 |  |
|  | 215 to 217 | 8.4 | CN1c2ccc(NC(=O)Nc3ccc([N+](=O)[O-])cc3)cc2C(C)(C)C(O)C1(C)C (centres unmarked) [Compound 13a, 1-(3-Hydroxy-1,2,2,4,4-pentamethyl-1,2,3,4-tetrahydroquinolin-6-yl)-3-(4-nitrophenyl)urea] |  | 26 |  |
|  |  | 7.7 | CN1c2ccc(NC(=O)Nc3ccc(N)cc3)cc2C(C)(C)C(=O)C1(C)C [Compound 11g, 1-(4-Aminophenyl)-3-(1,2,2,4,4-pentamethyl-3-oxo-1,2,3,4-tetrahydroquinolin-6-yl)urea] |  | 24 |  |

Second part, the compound before the results:

| SMILES | IC50 [1, 2] [µM] | melting point [°C] | IC50 [1, 4] [µM] | Emax [1, 3] [%] | Emax [1, 5] [%] | also measured |
| --- | --- | --- | --- | --- | --- | --- |
| CC1(C)CCOc2ccc(NC(=S)Nc3ccc(C(F)(F)F)cc3)cc21 [Compound 4b, 1-(4,4-Dimethylchroman-6-yl)-3-(4-(trifluoromethyl)phenyl)thiourea] | 5.5 | 147 to 149 |  | 28 |  |  |
| CCC1(CC)CC(C)(C)Oc2ccc(NC(=O)Nc3ccc(C(F)(F)F)cc3)cc21 [Compound 7d, 1-(4,4-Diethyl-2,2-dimethylchroman-6-yl)-3-(4-(trifluoromethyl)phenyl)urea] | 2.43 | 225 to 226 |  | 93.3 |  | efficacy compared with SHetA2 ([1]; A2780): exceeded the efficacy of SHetA2; IC50 compared with SHetA2 ([1]; A2780): exceeded |
| CCC1(CC)CC(CC)(CC)c2cc(NC(=O)Nc3ccc(C(F)(F)F)cc3)ccc2O1 [Compound 8c, 1-(2,2,4,4-Tetraethylchroman-6-yl)-3-(4-(trifluoromethyl)phenyl)urea] | 2 | 165 to 166 |  | 86.2 |  | IC50 compared with SHetA2 ([1]; A2780): exceeded |
| CC1(C)CCOc2ccc(NC(=S)Nc3ccc(OC(F)(F)F)cc3)cc21 [Compound 4c, 1-(4,4-Dimethylchroman-6-yl)-3-(4-(trifluoromethoxy)phenyl)thiourea] | 4.3 | 153 to 154 |  | 16 |  |  |
| CC1(C)CC(C)(C)c2cc(NC(=S)Nc3ccc(S(N)(=O)=O)cc3)ccc2O1 [Compound 2d, 4-(3-(2,2,4,4-Tetramethylchroman-6-yl)thioureido)benzenesulfonamide] |  | 186 to 187 |  |  |  |  |
| CCC1(CC)CC(CC)(CC)c2cc(NC(=O)Nc3ccc(OC(F)(F)F)cc3)ccc2O1 [Compound 8d, 1-(2,2,4,4-Tetraethylchroman-6-yl)-3-(4-(trifluoromethoxy)phenyl)urea] | 3 | 180 to 181 |  | 67 |  | IC50 compared with SHetA2 ([1]; A2780): exceeded |
| CC1(C)CC(C)(C)c2cc(NC(=O)Nc3ccc(C#N)cc3)ccc2O1 [Compound 3b, 1-(4-Cyanophenyl)-3-(2,2,4,4-tetramethylchroman-6-yl)urea] |  | 225 to 226 |  |  |  | efficacy compared with SHetA2 ([1]; A2780): exceeded the efficacy of SHetA2 |
| CCC1(CC)CC(C)(C)c2cc(NC(=O)Nc3ccc(C(F)(F)F)cc3)ccc2O1 [Compound 6c, 1-(2,2-Diethyl-4,4-dimethylchroman-6-yl)-3-(4-(trifluoromethyl)phenyl)urea] | 2.45 | 208 to 210 |  | 92.4 |  | efficacy compared with SHetA2 ([1]; A2780): exceeded the efficacy of SHetA2; IC50 compared with SHetA2 ([1]; A2780): exceeded |
| CCC1(CC)CC(C)(C)Oc2ccc(NC(=S)Nc3ccc(C(F)(F)F)cc3)cc21 [Compound 7b, 1-(4,4-Diethyl-2,2-dimethylchroman-6-yl)-3-(4-(trifluoromethyl)phenyl)thiourea] | 4.7 | 155 to 156 |  | 11.8 |  |  |
| CCC1(CC)CC(C)(C)c2cc(NC(=O)Nc3ccc([N+](=O)[O-])cc3)ccc2O1 [Compound 6b, 1-(2,2-Diethyl-4,4-dimethylchroman-6-yl)-3-(4-nitrophenyl)urea] | 2.17 |  |  | 93.3 |  | efficacy compared with SHetA2 ([1]; A2780): exceeded the efficacy of SHetA2; IC50 compared with SHetA2 ([1]; A2780): exceeded |
| CC1(C)CCOc2ccc(NC(=O)Nc3ccc(OC(F)(F)F)cc3)cc21 [Compound 5c, 1-(4,4-Dimethylchroman-6-yl)-3-(4-(trifluoromethoxy)phenyl)urea] | 3.5 | 230 to 231 |  | 36 |  |  |
| COc1cccc(NC(=S)Nc2ccc3c(c2)C(C)(C)CC(C)(C)S3)c1 [Compound 14i, 1-(3-Methoxyphenyl)-3-(2,2,4,4-tetramethylthiochroman-6-yl)thiourea] |  |  |  |  |  | IC50 [1, 6]: 3.04 ± 0.52 µM; Emax [1, 7]: 38.8 ± 0.04% |
| COc1ccc(NC(=S)Nc2ccc3c(c2)C(C)(C)CC(C)(C)S3)cc1 [Compound 14h, 1-(4-Methoxyphenyl)-3-(2,2,4,4-tetramethylthiochroman-6-yl)thiourea] |  |  |  |  |  | IC50 [1, 6]: 2.78 ± 0.47 µM; Emax [1, 7]: 59.8 ± 1.2% |
| CN1c2ccc(NC(=S)Nc3ccc([N+](=O)[O-])cc3)cc2C(C)(C)C(O)C1(C)C (centres unmarked) [Compound 13b] |  |  |  |  |  | IC50 ([1]; Table 2, tetrahydroquinoline-containing members, A2780, 72 h): 10 µM; Efficacy ([1]; Table 2, maximal % growth inhibition, A2780, 72 h): 25 (±4) % |
| CCC1(CC)CC(C)(C)Oc2ccc(NC(=S)Nc3ccc([N+](=O)[O-])cc3)cc21 [Compound 7a, 1-(4,4-Diethyl-2,2-dimethylchroman-6-yl)-3-(4-nitrophenyl)thiourea] | 3.69 |  |  | 95.7 |  | efficacy compared with SHetA2 ([1]; A2780): exceeded the efficacy of SHetA2 |
| CC1(C)CCOc2ccc(NC(=O)Nc3ccc(C(F)(F)F)cc3)cc21 [Compound 5b] |  |  |  |  |  | IC50 ([1]; Table 1, chroman-containing series, A2780, 72 h): 5 µM; Efficacy ([1]; Table 1, maximal % growth inhibition, A2780, 72 h): 47% |
